Source: ChEMBL document CHEMBL3885861, “Open TG-GATES”

Organism: Rattus norvegicus
Assay: Open TG-GATES - Regimen: Single
Type: toxicity, organism-based, Sprague-Dawley
Parameters: regimen Single, gender Male, age 6 weeks
Details: in vivo, po, 0 mg/kg, route gavage, dose level Control; for APTT / Bas / Eos / Fbg / Hb / Ht / Lym / MCH / MCHC / MCV / Mono / Neu / PT / Plat / RBC / Ret / WBC: tissue Blood; for KIDNEY_L / KIDNEY_R / KIDNEY_TOTAL: tissue Kidney; for LIVER: tissue Liver; for A/G / ALP / ALT / AST / BUN / CRE / Ca / Cl / DBIL / GLC / IP / K / LDH / Na / PL / RALB / TBIL / TC / TG / TP / gamma-GTP: tissue Plasma

`CN(C)CCC(c1ccc(Cl)cc1)c1ccccn1` (configuration not stated) [CHLORPHENIRAMINE] gave a TERMINAL_BW (3 h) of 198.4 g, an APTT (3 h) of 18.8 s and a Bas (3 h) of 0.2%. It also gave an Eos (3 h) of 0.8%, a Fbg (3 h) of 288.8 mg/dL and a Hb (3 h) of 12.6 g/dL. The Ht (3 h) was 39.4%, the Lym (3 h) was 77.4% and the MCH (3 h) was 20.8 pg. It also gave an MCHC (3 h) of 32.1%, an MCV (3 h) of 64.9 fL and a Mono (3 h) of 2.8%. The Neu (3 h) was 18.2%, the PT (3 h) was 14.7 s and the Plat (3 h) was 109.9 x10_4/uL. It also gave an RBC (3 h) of 606.2 x10_4/ul, a Ret (3 h) of 9.4% and a WBC (3 h) of 120.9 x10_2/uL. For the same compound, the KIDNEY_L (3 h) was 0.9 g, the KIDNEY_R (3 h) was 0.9 g and the KIDNEY_TOTAL (3 h) was 1.7 g. The LIVER (3 h) was 9.2 g, the A/G (3 h) was 0.9 and the ALP (3 h) was 1344.2 IU/L. It also gave an ALT (3 h) of 46 IU/L, an AST (3 h) of 73.6 IU/L and a BUN (3 h) of 9.2 mg/dL. For the same compound, the CRE (3 h) was 0.2 mg/dL, the Ca (3 h) was 10.5 mg/dL and the Cl (3 h) was 107.2 meq/L. For the same compound, the DBIL (3 h) was 0.008 mg/dL, the GLC (3 h) was 179 mg/dL and the IP (3 h) was 9.7 mg/dL. For the same compound, the K (3 h) was 4.3 meq/L, the LDH (3 h) was 215.8 IU/L and the Na (3 h) was 142.8 meq/L. The PL (3 h) was 137.2 mg/dL, the RALB (3 h) was 2.5 g/dL and the TBIL (3 h) was 0.054 mg/dL. It also gave a TC (3 h) of 79.8 mg/dL, a TG (3 h) of 46.6 mg/dL and a TP (3 h) of 5.3 g/dL. It also gave a gamma-GTP (3 h) of 1.4 IU/L, a TERMINAL_BW (6 h) of 196.5 g and an APTT (6 h) of 17.5 s. For the same compound, the Bas (6 h) was 0%, the Eos (6 h) was 0.6% and the Fbg (6 h) was 303.6 mg/dL. It also gave a Hb (6 h) of 12.8 g/dL, a Ht (6 h) of 40.3% and a Lym (6 h) of 76.8%. It also gave an MCH (6 h) of 20.7 pg, an MCHC (6 h) of 31.8% and an MCV (6 h) of 65.1 fL. It also gave a Mono (6 h) of 3.2%, a Neu (6 h) of 18.8% and a PT (6 h) of 14.8 s. It also gave a Plat (6 h) of 117.5 x10_4/uL, an RBC (6 h) of 618.2 x10_4/ul and a Ret (6 h) of 9.5%. It also gave a WBC (6 h) of 82.5 x10_2/uL, a KIDNEY_L (6 h) of 0.9 g and a KIDNEY_R (6 h) of 0.9 g. The KIDNEY_TOTAL (6 h) was 1.7 g, the LIVER (6 h) was 8.7 g and the A/G (6 h) was 0.9. The ALP (6 h) was 1456.6 IU/L, the ALT (6 h) was 44.8 IU/L and the AST (6 h) was 76.2 IU/L. For the same compound, the BUN (6 h) was 10.2 mg/dL, the CRE (6 h) was 0.2 mg/dL and the Ca (6 h) was 10.8 mg/dL. The Cl (6 h) was 106.6 meq/L, the DBIL (6 h) was 0.008 mg/dL and the GLC (6 h) was 190.6 mg/dL. It also gave an IP (6 h) of 10.7 mg/dL, a K (6 h) of 4.2 meq/L and an LDH (6 h) of 140.2 IU/L. It also gave a Na (6 h) of 143 meq/L, a PL (6 h) of 135.2 mg/dL and an RALB (6 h) of 2.5 g/dL. The TBIL (6 h) was 0.05 mg/dL, the TC (6 h) was 81 mg/dL and the TG (6 h) was 49.2 mg/dL. The TP (6 h) was 5.4 g/dL, the gamma-GTP (6 h) was 1.2 IU/L and the TERMINAL_BW (9 h) was 193.9 g. It also gave an APTT (9 h) of 19.1 s, a Bas (9 h) of 0% and an Eos (9 h) of 0.8%. It also gave a Fbg (9 h) of 294.4 mg/dL, a Hb (9 h) of 12.7 g/dL and a Ht (9 h) of 39.4%. It also gave a Lym (9 h) of 75.6%, an MCH (9 h) of 21.6 pg and an MCHC (9 h) of 32.2%. For the same compound, the MCV (9 h) was 67.1 fL, the Mono (9 h) was 2.8% and the Neu (9 h) was 19.8%. It also gave a PT (9 h) of 15 s, a Plat (9 h) of 107.8 x10_4/uL and an RBC (9 h) of 587.6 x10_4/ul. The Ret (9 h) was 9.5%, the WBC (9 h) was 66.4 x10_2/uL and the KIDNEY_L (9 h) was 0.9 g. It also gave a KIDNEY_R (9 h) of 0.9 g, a KIDNEY_TOTAL (9 h) of 1.7 g and an LIVER (9 h) of 7.7 g. The A/G (9 h) was 0.9, the ALP (9 h) was 1415.8 IU/L and the ALT (9 h) was 38.6 IU/L. For the same compound, the AST (9 h) was 73.8 IU/L, the BUN (9 h) was 8.2 mg/dL and the CRE (9 h) was 0.1 mg/dL. For the same compound, the Ca (9 h) was 10.2 mg/dL, the Cl (9 h) was 106.6 meq/L and the DBIL (9 h) was 0.008 mg/dL. It also gave a GLC (9 h) of 161.6 mg/dL, an IP (9 h) of 10.7 mg/dL and a K (9 h) of 4 meq/L. The LDH (9 h) was 116.2 IU/L, the Na (9 h) was 143.8 meq/L and the PL (9 h) was 131.6 mg/dL. It also gave an RALB (9 h) of 2.5 g/dL, a TBIL (9 h) of 0.054 mg/dL and a TC (9 h) of 76.2 mg/dL. It also gave a TG (9 h) of 39.4 mg/dL, a TP (9 h) of 5.4 g/dL and a gamma-GTP (9 h) of 1.2 IU/L. For the same compound, the TERMINAL_BW (24 h) was 212.2 g, the APTT (24 h) was 19.7 s and the Bas (24 h) was 0%. It also gave an Eos (24 h) of 1%, a Fbg (24 h) of 292.6 mg/dL and a Hb (24 h) of 13.3 g/dL. The Ht (24 h) was 41.2%, the Lym (24 h) was 80.6% and the MCH (24 h) was 21.2 pg. For the same compound, the MCHC (24 h) was 32.2%, the MCV (24 h) was 66 fL and the Mono (24 h) was 3.6%. The Neu (24 h) was 14.2%, the PT (24 h) was 14.7 s and the Plat (24 h) was 116.5 x10_4/uL. The RBC (24 h) was 624.8 x10_4/ul, the Ret (24 h) was 8.4% and the WBC (24 h) was 75.5 x10_2/uL. For the same compound, the KIDNEY_L (24 h) was 0.9 g, the KIDNEY_R (24 h) was 0.9 g and the KIDNEY_TOTAL (24 h) was 1.8 g. The LIVER (24 h) was 10 g, the A/G (24 h) was 0.8 and the ALP (24 h) was 1528.4 IU/L. For the same compound, the ALT (24 h) was 46 IU/L, the AST (24 h) was 70.2 IU/L and the BUN (24 h) was 14.6 mg/dL. For the same compound, the CRE (24 h) was 0.2 mg/dL, the Ca (24 h) was 11 mg/dL and the Cl (24 h) was 106.4 meq/L. The DBIL (24 h) was 0.012 mg/dL, the GLC (24 h) was 190.6 mg/dL and the IP (24 h) was 8.8 mg/dL. For the same compound, the K (24 h) was 4.3 meq/L, the LDH (24 h) was 94.4 IU/L and the Na (24 h) was 143 meq/L. It also gave a PL (24 h) of 156.8 mg/dL, an RALB (24 h) of 2.7 g/dL and a TBIL (24 h) of 0.04 mg/dL. The TC (24 h) was 85 mg/dL, the TG (24 h) was 86 mg/dL and the TP (24 h) was 5.8 g/dL. It also gave a gamma-GTP (24 h) of 1.4 IU/L.
